Measurements from PubChem BioAssay AID330 (DTP/NCI, 2004).
Where “and” joins values, the source holds several entries; their conditions need not be identical. Equal values may be shown once. Inconclusive results and toxic doses are left out.

Test system: P388 leukemia ip, CD2F1 mice, survival T/C
Experiment: NCI In Vivo Anticancer Drug Screen. Data for tumor model P388 Leukemia (intraperitoneal) in CD2F1 (CDF1) mice
Details: endpoint: median survival time, higher = longer survival
Procedure: The antitumor activity of compounds was measured in mice bearing transplantable tumors. Survival or tumor size were measured and the results are expressed as the measurement made in the treated group (T) divided by the measurement made in the vehicle treated control group (C). The tumor model used in this assay is P388 Leukemia (intraperitoneal) in CD2F1 (CDF1) mice

[1] = dose: 50.0 mg/kg/injection, schedule: Q01DX009 (ip), vehicle: Klucel (hydroxypropylcellulose) (HPC)
[2] = dose: 100.0 mg/kg/injection, schedule: Q01DX009 (ip), vehicle: Klucel (hydroxypropylcellulose) (HPC)
[3] = dose: 200.0 mg/kg/injection, schedule: Q01DX009 (ip), vehicle: Klucel (hydroxypropylcellulose) (HPC)
[4] = dose: 50.0 mg/kg/injection, schedule: Q01DX005 (ip), vehicle: Klucel (hydroxypropylcellulose) (HPC)
[5] = dose: 100.0 mg/kg/injection, schedule: Q01DX005 (ip), vehicle: Klucel (hydroxypropylcellulose) (HPC)
[6] = dose: 200.0 mg/kg/injection, schedule: Q01DX005 (ip), vehicle: Klucel (hydroxypropylcellulose) (HPC)
[7] = dose: 50.0 mg/kg/injection, schedule: Q01DX009 (ip), vehicle: saline
[8] = dose: 100.0 mg/kg/injection, schedule: Q01DX009 (ip), vehicle: saline
[9] = dose: 60.0 mg/kg/injection, schedule: Q01DX005 (ip), vehicle: saline with Tween-80
[10] = dose: 120.0 mg/kg/injection, schedule: Q01DX005 (ip), vehicle: saline with Tween-80
[11] = dose: 240.0 mg/kg/injection, schedule: Q01DX005 (ip), vehicle: saline with Tween-80
[12] = dose: 50.0 mg/kg/injection, schedule: Q01DX009 (ip), vehicle: saline with Tween-80
[13] = dose: 100.0 mg/kg/injection, schedule: Q01DX009 (ip), vehicle: saline with Tween-80

COC(=O)c1ccc(SCCC(=O)CSc2ccc(C(=O)OC)cc2)cc1 was tested, and the T/C [1] was 98 % of control, the T/C [2] was 94 % of control and the T/C [3] was 94 % of control.

Nc1ccc2nc3ccc(O)cc3nc2c1 was tested, and the T/C [4] was 103 % of control, the T/C [5] was 108 % of control and the T/C [6] was 105 % of control.

In the case of CN1CCC23c4c5ccc(O)c4OC2C(O)C=CC3C1C5 (stereo not given), the T/C (dose: 32.0 mg/kg/injection, schedule: Q01DX009 (ip), vehicle: saline) is reported as 97 % of control, the T/C (dose: 64.0 mg/kg/injection, schedule: Q01DX009 (ip), vehicle: saline) is reported as 106 % of control and the T/C (dose: 128.0 mg/kg/injection, schedule: Q01DX009 (ip), vehicle: saline) is reported as 95 % of control.

For O=C(O)/C(Cl)=C(Cl)\C=N\Nc1ccccc1, the T/C (dose: 25.0 mg/kg/injection, schedule: Q04DX002 (ip), vehicle: saline with Tween-80) was 100 % of control, the T/C (dose: 50.0 mg/kg/injection, schedule: Q04DX002 (ip), vehicle: saline with Tween-80) was 102 % of control and the T/C (dose: 100.0 mg/kg/injection, schedule: Q04DX002 (ip), vehicle: saline with Tween-80) was 100 % of control.

CNC(=S)NNc1ccc(Cl)c(Cl)c1 was tested, and the T/C (dose: 25.0 mg/kg/injection, schedule: Q01DX009 (ip), vehicle: other) was 112 % of control and the T/C (dose: 50.0 mg/kg/injection, schedule: Q01DX009 (ip), vehicle: other) was 108 % of control.

In the case of COC(=O)c1cc(=O)n(-c2ccc(OC)cc2)c(SC)n1, the T/C (dose: 100.0 mg/kg/injection, schedule: Q04DX003 (ip), vehicle: saline with Tween-80) is reported as 100 % of control and the T/C (dose: 200.0 mg/kg/injection, schedule: Q04DX003 (ip), vehicle: saline with Tween-80) is reported as 91 % of control.

With Fc1ccc(NC(=S)SCc2ccco2)cc1 the T/C (dose: 50.0 mg/kg/injection, schedule: Q01DX009 (ip), vehicle: suspension in saline) was 101 % of control, the T/C (dose: 100.0 mg/kg/injection, schedule: Q01DX009 (ip), vehicle: suspension in saline) was 98 % of control and the T/C (dose: 200.0 mg/kg/injection, schedule: Q01DX009 (ip), vehicle: suspension in saline) was 92 % of control.

With NC(N)=NCCCC(N)C(=O)O (stereo not given) the T/C [7] was 119 % of control, the T/C [8] was 100 % of control and 122 % of control and the T/C (dose: 200.0 mg/kg/injection, schedule: Q01DX009 (ip), vehicle: saline) was 105 % of control and 110 % of control. The T/C (dose: 400.0 mg/kg/injection, schedule: Q01DX009 (ip), vehicle: saline) was 100 % of control.

With COc1ccc(OC)c(/C=C2/C(=O)N(c3ccccc3)N=C2C)c1 the T/C (dose: 60.0 mg/kg/injection, schedule: Q01DX005 (ip), vehicle: Klucel (hydroxypropylcellulose) (HPC)) was 107 % of control, the T/C (dose: 120.0 mg/kg/injection, schedule: Q01DX005 (ip), vehicle: Klucel (hydroxypropylcellulose) (HPC)) was 105 % of control and the T/C (dose: 240.0 mg/kg/injection, schedule: Q01DX005 (ip), vehicle: Klucel (hydroxypropylcellulose) (HPC)) was 107 % of control.

For N=C(/C(=C/c1ccccc1)c1ccccc1)c1ccccc1, the T/C [1] was 107 % of control, the T/C [2] was 113 % of control and the T/C [3] was 118 % of control.

With CC(=O)C(C(=O)CCSCC(N)C(=O)O)C(SCC(N)C(=O)O)c1ccc(Cl)c(Cl)c1 (stereo not given) the T/C (dose: 50.0 mg/kg/injection, schedule: Q01DX005 (ip), vehicle: saline) was 103 % of control, the T/C (dose: 100.0 mg/kg/injection, schedule: Q01DX005 (ip), vehicle: saline) was 103 % of control and the T/C (dose: 200.0 mg/kg/injection, schedule: Q01DX005 (ip), vehicle: saline) was 102 % of control.

For CCOC(=O)N1c2ccccc2C(c2ccccc2)=NC1(C)C#N (stereo not given), the T/C (dose: 50.0 mg/kg/injection, schedule: Q01DX005 (ip), vehicle: saline with Tween-80) was 97 % of control, the T/C (dose: 100.0 mg/kg/injection, schedule: Q01DX005 (ip), vehicle: saline with Tween-80) was 99 % of control and the T/C (dose: 200.0 mg/kg/injection, schedule: Q01DX005 (ip), vehicle: saline with Tween-80) was 99 % of control.

In the case of O=NN(CCCl)C(=O)Nc1cccc(O)c1, the T/C (dose: 66.0 mg/kg/injection, schedule: Q04DX003 (ip), vehicle: Klucel (hydroxypropylcellulose) (HPC)) is reported as 220 % of control and the T/C (dose: 100.0 mg/kg/injection, schedule: Q04DX003 (ip), vehicle: Klucel (hydroxypropylcellulose) (HPC)) is reported as 240 % of control.

CC1(C)OC(COCCO)C(COCCO)O1 (stereo not given) was tested, and the T/C (dose: 100.0 mg/kg/injection, schedule: Q01DX001 (ip), vehicle: saline) was 92 % of control, the T/C (dose: 200.0 mg/kg/injection, schedule: Q01DX001 (ip), vehicle: saline) was 91 % of control and the T/C (dose: 400.0 mg/kg/injection, schedule: Q01DX001 (ip), vehicle: saline) was 92 % of control.

CC(=O)Nc1ccc(/C=C/c2csnn2)cc1 was tested, and the T/C [9] was 92 % of control, the T/C [10] was 87 % of control and the T/C [11] was 92 % of control.

For CC1(C)CC(=O)N(CN2CCCCC2)C(=O)C1, the T/C (dose: 100.0 mg/kg/injection, schedule: Q04DX002 (ip), vehicle: Klucel (hydroxypropylcellulose) (HPC)) was 114 % of control and the T/C (dose: 200.0 mg/kg/injection, schedule: Q04DX002 (ip), vehicle: Klucel (hydroxypropylcellulose) (HPC)) was 120 % of control.

In the case of CSCCC(NC(=O)C(C)NC(=O)OCc1ccccc1)C(=O)O (stereo not given), the T/C [4] is reported as 99 % of control, the T/C [5] is reported as 101 % of control and the T/C [6] is reported as 95 % of control.

For CCCCCC(CN(C)C)C(=O)/C=C/c1ccc2c(c1)OCO2 (stereo not given), the T/C [12] was 123 % of control and the T/C [13] was 109 % of control.

COc1cc(OC)c(-c2cc3ccc(OCc4ccccc4)cc3oc2=O)cc1OC was tested, and the T/C (dose: 100.0 mg/kg/injection, schedule: Q01DX001 (ip), vehicle: Klucel (hydroxypropylcellulose) (HPC)) was 102 % of control, the T/C (dose: 200.0 mg/kg/injection, schedule: Q01DX001 (ip), vehicle: Klucel (hydroxypropylcellulose) (HPC)) was 105 % of control and the T/C (dose: 400.0 mg/kg/injection, schedule: Q01DX001 (ip), vehicle: Klucel (hydroxypropylcellulose) (HPC)) was 94 % of control.

For CC(=O)OCC1OC(OC2CC(=O)C[C@H]3C(=O)N(c4ccccc4)C(=O)[C@@H]23)C(OC(C)=O)C(OC(C)=O)C1OC(C)=O (stereo not given in full), the T/C [9] was 102 % of control, the T/C [10] was 103 % of control and the T/C [11] was 92 % of control.

In the case of C=CCC12CC(OC)C(O)CC1(O)OC(c1cc(OC)c(OC)c(OC)c1)C2C (stereo not given), the T/C (dose: 1.25 mg/kg/injection, schedule: Q01DX005 (ip), vehicle: acid diluted with saline) is reported as 115 % of control, the T/C (dose: 2.5 mg/kg/injection, schedule: Q01DX005 (ip), vehicle: acid diluted with saline) is reported as 100 % of control and the T/C (dose: 5.0 mg/kg/injection, schedule: Q01DX005 (ip), vehicle: acid diluted with saline) is reported as 93 % of control. For the same molecule, the T/C (dose: 10.0 mg/kg/injection, schedule: Q01DX005 (ip), vehicle: acid diluted with saline) was 106 % of control.

CCC[CH2][Sn]([CH2]CCC)([CH2]CCC)[CH2]CCCNCCCN(C)C was tested, and the T/C [7] was 97 % of control and the T/C [8] was 100 % of control.

With O=C(NC1CCCCC1)OCc1c(COC(=O)NC2CCCCC2)c(-c2ccc(Cl)c(Cl)c2)n2c1CCCC2 the T/C (dose: 12.5 mg/kg/injection, schedule: Q01DX009 (ip), vehicle: distilled water + Tween-80) was 96 % of control, the T/C (dose: 25.0 mg/kg/injection, schedule: Q01DX009 (ip), vehicle: distilled water + Tween-80) was 89 % of control and 91 % of control and the T/C (dose: 50.0 mg/kg/injection, schedule: Q01DX009 (ip), vehicle: distilled water + Tween-80) was 87 % of control and 96 % of control. The T/C (dose: 100.0 mg/kg/injection, schedule: Q01DX009 (ip), vehicle: distilled water + Tween-80) was 99 % of control and 100 % of control, the T/C (dose: 200.0 mg/kg/injection, schedule: Q01DX009 (ip), vehicle: distilled water + Tween-80) was 99 % of control and 116 % of control and the T/C (dose: 400.0 mg/kg/injection, schedule: Q01DX009 (ip), vehicle: distilled water + Tween-80) was 116 % of control.

In the case of Cc1nc(N)[nH]c(=O)c1N, the T/C (dose: 12.5 mg/kg/injection, schedule: Q01DX005 (ip), vehicle: Klucel (hydroxypropylcellulose) (HPC)) is reported as 99 % of control, the T/C (dose: 25.0 mg/kg/injection, schedule: Q01DX005 (ip), vehicle: Klucel (hydroxypropylcellulose) (HPC)) is reported as 108 % of control and the T/C [4] is reported as 103 % of control and 98 % of control. The T/C [5] was 110 % of control.

N#CN=CN(Cc1ccccc1)Cc1ccccc1 was tested, and the T/C [12] was 101 % of control, the T/C [13] was 96 % of control and the T/C (dose: 200.0 mg/kg/injection, schedule: Q01DX009 (ip), vehicle: saline with Tween-80) was 93 % of control.

For Brc1ccc(C2=NOP(c3ccccc3)(c3ccccc3)(c3ccccc3)C2)cc1, the T/C [1] was 99 % of control and the T/C [2] was 96 % of control.

For CN1CCC(O)(O)C(Cl)(Cl)C1, the T/C (dose: 50.0 mg/kg/injection, schedule: Q01DX005 (ip), vehicle: suspension in saline) was 104 % of control, the T/C (dose: 100.0 mg/kg/injection, schedule: Q01DX005 (ip), vehicle: suspension in saline) was 99 % of control and the T/C (dose: 200.0 mg/kg/injection, schedule: Q01DX005 (ip), vehicle: suspension in saline) was 95 % of control.
